Experimental data: patent US20240325398A1, “COMBINATION THERAPIES” (Infinity Pharmaceuticals, Inc., priority 2014, published 2024)

Assays:
NCI-H929 = assay: Combination study, ATPLite 72 h, dose matrix (Synergy Score, CI50); conditions: combination with Compound 1
OCI-Ly7 = assay: as above; conditions: combination with Compound 1, 72 h
KARPAS-422 = assay: as above; conditions: combination with Compound 1, 72 h
Mino = assay: as above; conditions: combination with Compound 1
OCI-Ly3 = assay: as above; conditions: combination with Compound 1; OCI-Ly3; 72 h
OMP-2 = assay: as above; conditions: combination with Compound 1; OPM-2
[1] = as above; conditions: combination with Compound 1; OPM-2
RPMI-8226 = assay: as above; conditions: combination with Compound 1
RL = assay: as above; conditions: combination with Compound 1, 72 h
WSU-NHL = assay: as above; conditions: combination with Compound 1, 72 h
Method: (§1) Cells are thawed from a liquid nitrogen preserved state. Once cells have been expanded and divide at their expected doubling times, screening begins. Cells are seeded in growth media in either black 1536-well or 384-well tissue culture treated plates. Cells are then equilibrated in assay plates via centrifugation and placed in incubators attached to the Dosing Modules at 37° C. for 24 hours before treatment. […] These Tzero (To) plates are read using ultra-sensitive luminescence on Envision plate readers (Perkin Elmer). Treated assay plates are incubated with compound for 72 hours. After 72 hours, plates are developed for endpoint analysis using ATPLite. All data points are collected via automated processes, quality controlled and analyzed using Zalicus software.
(§2) where T is treated cell count and V is untreated (vehicle) cell count (at 72 hours). I ranges from 0% (when T=V) to 100% (when T=0). […] The measure of effect in the experiment can be the inhibition of cellular response relative to the untreated level (vehicle alone). […] The inhibition ranges from 0% at the untreated level to 100% when T=0. Inhibition levels are negative for agents that actually increase levels. Other effect measures, such as an activity ratio r=T/V may be more appropriate for some assays. When activity ratios (e.g, fold increase over stimulated control) are being used, the effect can be measured using an induction 1=ln(T/V). With this definition, all effect expressions are the same as for inhibition.
(§3) Growth Inhibition (GI) is used as a measure of cell viability. […] A GI reading of 100% represents complete growth inhibition—T72 compound-treated and T0 vehicle signals are matched. […] A GI reading of 200% represents complete death of all cells in the culture well. Compounds reaching an activity plateau of GI 200% are considered cytotoxic. GI is calculated by applying the following test and equation:
(§4) Combination analysis data were collected in a 6×6 dose matrix. Synergy is calculated by comparing a combination's response to those of its single compound, against the drug-with-itself dose-additive reference model. Deviations from dose additivity may be assessed visually on an isobologram or numerically with a Combination Index (CI). […] Additive effect is CI=1.0. […] Antagonistic effect is CI>1.0.
(§5) To measure combination effects in excess of Loewe additivity, a scalar measure to characterize the strength of synergistic interaction termed the Synergy Score is devised. The Synergy Score is calculated as:
(§6) The fractional inhibition for each component agent and combination point in the matrix is calculated relative to the median of all vehicle-treated control wells. The Synergy Score equation integrates the experimentally-observed activity volume at each point in the matrix in excess of a model surface numerically derived from the activity of the component agents using the Loewe model for additivity. Additional terms in the Synergy Score equation (above) are used to normalize for various dilution factors used for individual agents and to allow for comparison of synergy scores across an entire experiment. The inclusion of positive inhibition gating or an Idata multiplier removes noise near the zero effect level, and biases results for synergistic interactions at that occur at high activity levels.
(§7) Loewe Volume (Loewe Vol) is used to assess the overall magnitude of the combination interaction in excess of the Loewe additivity model. Loewe Volume is particularly useful when distinguishing synergistic increases in a phenotypic activity (positive Loewe Volume) versus synergistic antagonisms (negative Loewe Volume). […] This model defines additivity as a non-synergistic combination interaction where the combination dose matrix surface should be indistinguishable from either drug crossed with itself.

HBL-1 = assay: as above; conditions: combination with Compound 1, 72 h
U-2932 = assay: as above; conditions: combination with Compound 1, 72 h
Jeko-1 = assay: as above; conditions: combination with Compound 1
Method: as §1, §2, §3, §4, §5, §6, §7

DOHH-2 = assay: as above; conditions: combination with Compound 1, 72 h
Method: as §1
The measure of effect in the experiment can be the inhibition of cellular response relative to the untreated level (vehicle alone). […] The inhibition ranges from 0% at the untreated level to 100% when T=0. Inhibition levels are negative for agents that actually increase levels.
as §3, §4, §5, §6
Loewe Volume (Loewe Vol) is used to assess the overall magnitude of the combination interaction in excess of the Loewe additivity model. Loewe Volume is particularly useful when distinguishing synergistic increases in a phenotypic activity (positive Loewe Volume) versus synergistic antagonisms (negative Loewe Volume). […] This model defines additivity as a non-synergistic combination interaction where the combination dose matrix surface should be indistinguishable from either drug crossed with itself. The calculation for Loewe additivity is:

KARPAS-299 = assay: as above; conditions: combination with Compound 1
SU-DHL-4-epst = assay: as above; conditions: combination with Compound 1, 72 h
GRANTA-519 = assay: as above; conditions: combination with Compound 1
SU-DHL-10-epst = assay: as above; conditions: combination with Compound 1, 72 h
HH = assay: as above; format: cell-based; conditions: combination with Compound 1
Method: The method is described as follows.
Additive effect is CI=1.0. […] Antagonistic effect is CI>1.0.
The Synergy Score is calculated as: […]

Farage = assay: as above; conditions: combination with Compound 1; Farage; 72 h
TMD8 = assay: as above; conditions: combination with Compound 1; TMD8; 72 h
Method: as §1, §2, §3, §4
The isobologram was drawn by identifying the locus of concentrations that correspond to crossing the indicated inhibition level. This is done by finding the crossing point for each single agent concentration in a dose matrix across the concentrations of the other single agent. Practically, each vertical concentration CY is held fixed while a bisection algorithm is used to identify the horizontal concentration CX in combination with that vertical dose that gives the chosen effect level in the response surface Z(CX,CY). These concentrations are then connected by linear interpolation to generate the isobologram display. For synergistic interactions, the isobologram contour fall below the additivity threshold and approaches the origin, and an antagonistic interaction would lie above the additivity threshold. The error bars represent the uncertainty arising from the individual data points used to generate the isobologram. The uncertainty for each crossing point is estimated from the response errors using bisection to find the concentrations where Z−αZ(CX,CY) and Z+σZ(CX,CY) cross Icut, where αZ is the standard deviation of the residual error on the effect scale.
as §5
The fractional inhibition for each component agent and combination point in the matrix is calculated relative to the median of all vehicle-treated control wells.

COc1ccc(-c2ccc3c(N4CCOC[C@@H]4C)nc(N4CCOC[C@@H]4C)nc3n2)cc1CO [AZD 8055]
W (W=≥1): CI50 growth inhibition (NCI-H929) | CI50 inhibition (OMP-2) | CI50 inhibition (RPMI-8226) | CI50 growth inhibition (KARPAS-299)
T (T=0.5 to <0.7): CI50 inhibition (NCI-H929) | CI50 inhibition (OCI-Ly7) | CI50 inhibition (OCI-Ly3) | CI50 growth inhibition (WSU-NHL) | CI50 inhibition (HBL-1) | CI50 inhibition (Jeko-1) | CI50 growth inhibition (SU-DHL-4-epst) | CI50 growth inhibition (GRANTA-519)
A3 (A3=>3): Synergy Score growth inhibition (NCI-H929) | Synergy Score growth inhibition (OCI-Ly7) | Synergy Score growth inhibition (WSU-NHL) | Synergy Score inhibition (WSU-NHL) | Synergy Score growth inhibition (HBL-1) | Synergy Score growth inhibition (Jeko-1) | Synergy Score growth inhibition (DOHH-2) | Synergy Score inhibition (DOHH-2) | Synergy Score growth inhibition (SU-DHL-4-epst) | Synergy Score inhibition (SU-DHL-4-epst) | Synergy Score growth inhibition (SU-DHL-10-epst) | Synergy Score inhibition (SU-DHL-10-epst) | Synergy Score growth inhibition (HH) | Synergy Score growth inhibition (Farage) | Synergy Score inhibition (Farage) | Synergy Score growth inhibition (TMD8) | Synergy Score inhibition (TMD8)
A1 (A1=0.0001 to <1): Synergy Score inhibition (Mino) | Synergy Score inhibition (OCI-Ly3) | Synergy Score inhibition (OMP-2) | Synergy Score inhibition (RPMI-8226) | Synergy Score inhibition (HBL-1) | Synergy Score growth inhibition (KARPAS-299) | Synergy Score inhibition (KARPAS-299) | Synergy Score inhibition (GRANTA-519)
U (U=0.7 to <1): CI50 growth inhibition (Mino) | CI50 growth inhibition [1] | CI50 growth inhibition (RPMI-8226) | CI50 growth inhibition (RL) | CI50 inhibition (RL) | CI50 inhibition (U-2932) | CI50 inhibition (KARPAS-299) | CI50 inhibition (GRANTA-519)
S (S=0.01 to <0.5): CI50 growth inhibition (OCI-Ly7) | CI50 growth inhibition (KARPAS-422) | CI50 inhibition (KARPAS-422) | CI50 inhibition (Mino) | CI50 growth inhibition (OCI-Ly3) | CI50 inhibition (WSU-NHL) | CI50 growth inhibition (HBL-1) | CI50 growth inhibition (U-2932) | CI50 growth inhibition (Jeko-1) | CI50 growth inhibition (DOHH-2) | CI50 inhibition (DOHH-2) | CI50 inhibition (SU-DHL-4-epst) | CI50 growth inhibition (SU-DHL-10-epst) | CI50 inhibition (SU-DHL-10-epst) | CI50 growth inhibition (HH) | CI50 inhibition (HH) | CI50 growth inhibition (Farage) | CI50 inhibition (Farage) | CI50 growth inhibition (TMD8) | CI50 inhibition (TMD8)
A2 (A2=1 to <3): Synergy Score inhibition (NCI-H929) | Synergy Score inhibition (OCI-Ly7) | Synergy Score growth inhibition (KARPAS-422) | Synergy Score inhibition (KARPAS-422) | Synergy Score growth inhibition (Mino) | Synergy Score growth inhibition (OCI-Ly3) | Synergy Score growth inhibition (OMP-2) | Synergy Score growth inhibition (RPMI-8226) | Synergy Score growth inhibition (RL) | Synergy Score inhibition (RL) | Synergy Score growth inhibition (U-2932) | Synergy Score inhibition (U-2932) | Synergy Score inhibition (Jeko-1) | Synergy Score growth inhibition (GRANTA-519) | Synergy Score inhibition (HH)

Nc1ncn([C@@H]2O[C@H](CO)[C@@H](O)[C@H]2O)c(=O)n1 [Azacitidine]
W (W=≥1): CI50 inhibition (OMP-2) | CI50 inhibition (RPMI-8226) | CI50 inhibition (HBL-1) | CI50 inhibition (U-2932) | CI50 growth inhibition (KARPAS-299) | CI50 inhibition (KARPAS-299)
U (U=0.7 to <1): CI50 growth inhibition (NCI-H929) | CI50 inhibition (NCI-H929) | CI50 inhibition (KARPAS-422) | CI50 inhibition (RL) | CI50 growth inhibition (DOHH-2) | CI50 inhibition (DOHH-2) | CI50 growth inhibition (GRANTA-519) | CI50 growth inhibition (TMD8) | CI50 inhibition (TMD8)
T (T=0.5 to <0.7): CI50 growth inhibition (OCI-Ly7) | CI50 inhibition (OCI-Ly7) | CI50 growth inhibition (KARPAS-422) | CI50 growth inhibition (RPMI-8226) | CI50 growth inhibition (RL) | CI50 growth inhibition (WSU-NHL) | CI50 inhibition (Jeko-1)
S (S=0.01 to <0.5): CI50 growth inhibition (Mino) | CI50 inhibition (Mino) | CI50 growth inhibition (OCI-Ly3) | CI50 growth inhibition [1] | CI50 inhibition (WSU-NHL) | CI50 growth inhibition (HBL-1) | CI50 growth inhibition (U-2932) | CI50 growth inhibition (Jeko-1) | CI50 growth inhibition (SU-DHL-4-epst) | CI50 inhibition (SU-DHL-4-epst) | CI50 growth inhibition (SU-DHL-10-epst) | CI50 inhibition (SU-DHL-10-epst) | CI50 growth inhibition (HH) | CI50 inhibition (HH) | CI50 growth inhibition (Farage) | CI50 inhibition (Farage)
